According to ChEMBL document CHEMBL4699575, “Discovery of First-In-Class Potent and Selective Tropomyosin Receptor Kinase Degraders” (J Med Chem, 2020):
Active and inactive are the calls of the source. No cut-off for these calls is given here.

Columns and labels:
KM12 [1] = experiment: Induction of CRBN-mediated TMP3-TRKA (unknown origin) fusion protein degradation expressed in human KM12 cells at 10 nM for 6 hrs by immunoblot analysis relative to control; assay type: cell-based
KM12 [2] = experiment: Induction of CRBN-mediated TMP3-TRKA (unknown origin) fusion protein degradation expressed in human KM12 cells at 1 nM for 6 hrs by immunoblot analysis relative to control; assay type: cell-based
KM12 [3] = experiment: Induction of CRBN-mediated TMP3-TRKA (unknown origin) fusion protein degradation expressed in human KM12 cells at 0.1 nM for 6 hrs by immunoblot analysis relative to control; assay type: cell-based
[4] = biological target: High affinity nerve growth factor receptor (Homo sapiens, UniProt P04629); experiment: Binding affinity to human partial length TRKA expressed in mammalian expression system by kinomescan method
[5] = biological target: BDNF/NT-3 growth factors receptor (Homo sapiens, UniProt Q16620); experiment: Binding affinity to human partial length TRKB expressed in mammalian expression system by kinomescan method
[6] = Binding affinity to human partial length TRKC expressed in mammalian expression system by kinomescan method
[7] = Induction of CRBN-mediated TMP3-TRKA (unknown origin) fusion protein degradation expressed in human KM12 cells for 6 hrs by immunoblot analysis; assay type: cell-based; details: KM12, 6 h
[8] = (§1) Induction of CRBN-mediated TMP3-TRKA (unknown origin) fusion protein degradation expressed in human KM12 cells assessed as inhibition of PLC-gamma1 phosphorylation for 6 hrs by immunoblot analysis; assay type: cell-based; details: KM12, 6 h
KM12 [9] = experiment: as §1; assay type: cell-based
KM12 [10] = experiment: Induction of CRBN-mediated TMP3-TRKA (unknown origin) fusion protein degradation expressed in human KM12 cells at 30 nM for 6 hrs by immunoblot analysis; assay type: cell-based
KM12 [11] = experiment: Effect on GSPT1 expression in human KM12 cells at 0.04 to 30 nM for 6 hrs by immunoblot analysis; assay type: functional, cell-based; details: dose nM 0.04-30, time 6.0 hrs
KM12 [12] = experiment: Induction of CRBN-mediated TMP3-TRKA (unknown origin) fusion protein degradation expressed in human KM12 cells at 10 nM for 0.3 hrs by immunoblot analysis; assay type: cell-based
KM12 [13] = experiment: Induction of CRBN-mediated TMP3-TRKA (unknown origin) fusion protein degradation expressed in human KM12 cells assessed as inhibition of PLC-gamma1 phosphorylation at 10 nM for 0.3 hrs by immunoblot analysis; assay type: cell-based
KM12 [14] = experiment: Induction of CRBN-mediated TMP3-TRKA (unknown origin) fusion protein degradation expressed in human KM12 cells at 10 nM for 4 hrs by immunoblot analysis; assay type: cell-based
KM12 [15] = experiment: Induction of CRBN-mediated TMP3-TRKA (unknown origin) fusion protein degradation expressed in human KM12 cells assessed as inhibition of PLC-gamma1 phosphorylation at 10 nM for 4 hrs by immunoblot analysis; assay type: cell-based
[16] = biological target: T1, Protein cereblon/High affinity nerve growth factor receptor (Homo sapiens, UniProt P04629+Q96SW2); experiment: Induction of CRBN-mediated TRKA degradation in human HEL cells for 6 hrs by immunoblot analysis; assay type: cell-based
Target sequence in this assay (P04629 whole entry, the tested form may be a part): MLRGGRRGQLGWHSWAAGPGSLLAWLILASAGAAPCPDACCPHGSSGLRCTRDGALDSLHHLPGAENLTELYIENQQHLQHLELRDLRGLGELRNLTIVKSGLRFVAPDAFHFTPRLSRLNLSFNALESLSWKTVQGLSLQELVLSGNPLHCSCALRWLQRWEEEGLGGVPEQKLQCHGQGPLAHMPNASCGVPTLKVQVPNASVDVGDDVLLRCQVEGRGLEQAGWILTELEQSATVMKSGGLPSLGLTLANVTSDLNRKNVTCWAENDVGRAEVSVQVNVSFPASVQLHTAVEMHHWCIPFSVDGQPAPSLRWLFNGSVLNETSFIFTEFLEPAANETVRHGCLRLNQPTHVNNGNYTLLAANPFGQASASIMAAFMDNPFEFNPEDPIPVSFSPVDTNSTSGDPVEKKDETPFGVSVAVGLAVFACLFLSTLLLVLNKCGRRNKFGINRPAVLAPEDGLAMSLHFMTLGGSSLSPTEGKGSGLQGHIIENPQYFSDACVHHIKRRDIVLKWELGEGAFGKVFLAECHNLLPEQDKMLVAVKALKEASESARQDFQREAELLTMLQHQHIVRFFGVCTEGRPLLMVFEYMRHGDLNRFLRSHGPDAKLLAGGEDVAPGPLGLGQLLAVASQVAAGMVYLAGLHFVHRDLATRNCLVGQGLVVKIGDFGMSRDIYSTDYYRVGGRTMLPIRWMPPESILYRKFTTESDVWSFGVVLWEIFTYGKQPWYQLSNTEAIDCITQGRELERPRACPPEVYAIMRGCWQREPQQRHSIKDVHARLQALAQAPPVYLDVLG
Target sequence in this assay (Q96SW2 whole entry, the tested form may be a part): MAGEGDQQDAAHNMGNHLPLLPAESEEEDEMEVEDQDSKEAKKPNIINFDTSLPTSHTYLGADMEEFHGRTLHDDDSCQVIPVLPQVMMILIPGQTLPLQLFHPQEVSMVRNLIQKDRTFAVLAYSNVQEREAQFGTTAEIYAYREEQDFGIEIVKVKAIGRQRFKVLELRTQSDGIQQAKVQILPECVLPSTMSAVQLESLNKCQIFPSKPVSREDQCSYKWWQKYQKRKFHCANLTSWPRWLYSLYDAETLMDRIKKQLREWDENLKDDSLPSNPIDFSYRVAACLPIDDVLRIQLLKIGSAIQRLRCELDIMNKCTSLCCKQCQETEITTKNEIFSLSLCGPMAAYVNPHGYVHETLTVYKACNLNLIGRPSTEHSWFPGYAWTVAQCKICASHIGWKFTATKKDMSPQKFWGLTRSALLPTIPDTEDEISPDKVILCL

KM12 [17] = experiment: Induction of CRBN-mediated AGBL4-TRKB (unknown origin) fusion protein degradation expressed in human KM12 cells at 0.7 to 500 nM for 6 hrs by immunoblot analysis; assay type: cell-based; details: dose nM 0.7-500, time 6.0 hrs
KM12 [18] = experiment: Induction of CRBN-mediated ETV6-TRKC (unknown origin) fusion protein degradation expressed in human KM12 cells at 0.7 to 500 nM for 6 hrs by immunoblot analysis; assay type: cell-based; details: dose nM 0.7-500, time 6.0 hrs
KM12 [19] = experiment: Induction of CRBN-mediated TMP3-TRKA (unknown origin) fusion protein degradation expressed in human KM12 cells at 10 nM for 6 hrs pretreated with pomalidomide by immunoblot analysis; assay type: cell-based
KM12 [20] = experiment: Induction of CRBN-mediated TMP3-TRKA (unknown origin) fusion protein degradation expressed in human KM12 cells at 10 nM for 6 hrs pretreated with MG-132 by immunoblot analysis; assay type: cell-based
KM12 [21] = experiment: Induction of CRBN-mediated TMP3-TRKA (unknown origin) fusion protein degradation expressed in human KM12 cells at 10 nM for 6 hrs pretreated with bortezomib by immunoblot analysis; assay type: cell-based
KM12 [22] = experiment: Induction of CRBN-mediated TMP3-TRKA (unknown origin) fusion protein degradation expressed in human KM12 cells at 10 nM for 6 hrs pretreated with MLN4924 by immunoblot analysis; assay type: cell-based
KM12 [23] = experiment: Antiproliferative activity against human KM12 cells assessed as reduction in cell viability measured after 3 days by Celltiter-Glo assay; assay type: functional, cell-based; details: KM12, 72 h
[24] = Cmax in ICR mouse at 10 mg/kg, ip measured for 1 hr; assay type: ADME, organism-based; parameters: route intraperitoneal, dose 10 mg/kg, time 1 hrs; details: in vivo
[25] = Plasma concentration in ICR mouse at 10 mg/kg, ip measured at 8 hrs; assay type: ADME, organism-based
KM12 [26] = experiment: Effect on GSPT1 expression in human KM12 cells at 30 nM for 6 hrs by immunoblot analysis; assay type: functional, cell-based
[27] = biological target: T1, Protein cereblon/High affinity nerve growth factor receptor; experiment: Induction of CRBN-mediated TRKA degradation in human HEL cells at 30 nM for 6 hrs by immunoblot analysis; assay type: cell-based
Target sequence in this assay (P04629 33-796 limits assumed): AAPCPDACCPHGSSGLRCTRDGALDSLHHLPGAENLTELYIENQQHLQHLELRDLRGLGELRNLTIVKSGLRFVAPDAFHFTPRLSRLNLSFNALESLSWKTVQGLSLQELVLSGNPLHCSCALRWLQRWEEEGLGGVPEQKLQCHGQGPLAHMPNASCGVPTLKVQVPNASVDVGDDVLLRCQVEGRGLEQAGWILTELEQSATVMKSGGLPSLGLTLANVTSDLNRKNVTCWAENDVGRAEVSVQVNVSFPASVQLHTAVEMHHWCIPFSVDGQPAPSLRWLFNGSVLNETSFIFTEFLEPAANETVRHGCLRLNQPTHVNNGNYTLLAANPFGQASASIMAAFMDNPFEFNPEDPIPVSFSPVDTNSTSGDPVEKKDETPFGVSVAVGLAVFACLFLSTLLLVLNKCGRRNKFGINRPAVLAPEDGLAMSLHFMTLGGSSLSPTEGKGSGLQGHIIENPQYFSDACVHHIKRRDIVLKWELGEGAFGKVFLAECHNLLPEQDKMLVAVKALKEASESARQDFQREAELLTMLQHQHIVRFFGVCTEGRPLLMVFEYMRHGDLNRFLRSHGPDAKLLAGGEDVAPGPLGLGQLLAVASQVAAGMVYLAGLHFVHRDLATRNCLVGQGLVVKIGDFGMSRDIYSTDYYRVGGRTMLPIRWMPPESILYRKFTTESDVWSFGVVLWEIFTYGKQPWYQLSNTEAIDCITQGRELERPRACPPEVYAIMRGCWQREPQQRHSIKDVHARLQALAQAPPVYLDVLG
Target sequence in this assay (Q96SW2 whole entry partner, the tested form may be a part): as the sequence (Q96SW2 whole entry, the tested form may be a part) above

[28] = biological target: T2, Tropomyosin alpha-3 chain/High affinity nerve growth factor receptor (Homo sapiens) (UniProt P04629+P06753); experiment: Induction of TMP3-TRKA (unknown origin) fusion protein degradation expressed in human KM12 cells transfected with siCRBN-1 at 0.1 to 10 nM for 6 hrs by immunoblot analysis; assay type: cell-based; details: dose nM 0.1-10, time 6.0 hrs
[29] = biological target: T2, Tropomyosin alpha-3 chain/High affinity nerve growth factor receptor (Homo sapiens); experiment: Induction of TMP3-TRKA (unknown origin) fusion protein degradation expressed in human KM12 cells transfected with siCRBN-2 at 0.1 to 10 nM for 6 hrs by immunoblot analysis; assay type: cell-based; details: dose nM 0.1-10, time 6.0 hrs
[30] = Half life in ICR mouse at 10 mg/kg, ip measured upto 8 hrs; assay type: ADME, organism-based; details: in vivo

Sequence of High affinity nerve growth factor receptor (P04629 whole entry): as the sequence (P04629 whole entry, the tested form may be a part) above
Sequence of BDNF/NT-3 growth factors receptor (Q16620 whole entry): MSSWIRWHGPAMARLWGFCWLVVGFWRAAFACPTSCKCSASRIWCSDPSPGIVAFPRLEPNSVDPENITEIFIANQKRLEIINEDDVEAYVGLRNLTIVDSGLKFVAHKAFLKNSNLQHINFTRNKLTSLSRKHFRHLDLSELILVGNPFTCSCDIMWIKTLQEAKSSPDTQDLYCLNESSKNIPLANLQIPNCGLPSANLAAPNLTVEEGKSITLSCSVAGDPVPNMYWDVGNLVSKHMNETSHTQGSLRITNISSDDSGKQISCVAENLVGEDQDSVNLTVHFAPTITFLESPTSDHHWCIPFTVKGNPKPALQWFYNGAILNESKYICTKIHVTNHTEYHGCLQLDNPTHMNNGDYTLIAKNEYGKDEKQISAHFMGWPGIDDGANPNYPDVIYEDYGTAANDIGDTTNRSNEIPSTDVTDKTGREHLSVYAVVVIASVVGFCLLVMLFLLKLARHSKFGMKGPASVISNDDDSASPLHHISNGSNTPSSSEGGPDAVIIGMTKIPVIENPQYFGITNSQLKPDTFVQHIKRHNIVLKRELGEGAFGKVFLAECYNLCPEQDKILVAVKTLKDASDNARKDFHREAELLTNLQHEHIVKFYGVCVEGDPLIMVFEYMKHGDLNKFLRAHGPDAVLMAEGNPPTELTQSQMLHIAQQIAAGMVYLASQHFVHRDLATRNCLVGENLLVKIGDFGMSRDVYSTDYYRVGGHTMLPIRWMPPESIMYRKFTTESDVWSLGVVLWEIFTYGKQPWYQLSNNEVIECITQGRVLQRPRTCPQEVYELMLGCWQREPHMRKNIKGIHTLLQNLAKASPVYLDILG
T2 sequence (P04629 whole entry, looked up, the tested form may be a part): as the sequence (P04629 whole entry, the tested form may be a part) above
T2 sequence (P06753 whole entry, looked up, the tested form may be a part): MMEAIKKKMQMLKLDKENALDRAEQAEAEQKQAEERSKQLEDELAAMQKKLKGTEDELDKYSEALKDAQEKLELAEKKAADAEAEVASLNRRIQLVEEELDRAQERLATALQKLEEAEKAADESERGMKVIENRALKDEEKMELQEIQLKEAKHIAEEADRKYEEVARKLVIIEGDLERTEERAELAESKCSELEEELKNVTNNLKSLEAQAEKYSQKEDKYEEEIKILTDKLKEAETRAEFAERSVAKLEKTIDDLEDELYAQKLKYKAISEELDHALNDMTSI

SMILES: O=C1CCC(N2C(=O)c3cccc(NCCC(=O)N4CCN(c5cccc(-c6cnc7ccc(N8CCC[C@@H]8c8cccc(F)c8)nn67)n5)CC4)c3C2=O)C(=O)N1 (some centres undefined)
- Activity (KM12 [1]): 65%
- Activity (KM12 [2]): 15%
- Activity (KM12 [3]): 9%

SMILES: O=C1CCC(N2C(=O)c3cccc(NCCCCCCCC(=O)N4CCN(c5cccc(-c6cnc7ccc(N8CCC[C@@H]8c8cccc(F)c8)nn67)n5)CC4)c3C2=O)C(=O)N1 (some centres undefined)
- Activity (KM12 [1]): 83%
- Activity (KM12 [2]): 21%
- Activity (KM12 [3]): 20%

SMILES: O=C1CCC(N2C(=O)c3cccc(NCCCCCCC(=O)N4CCN(c5cccc(-c6cnc7ccc(N8CCC[C@@H]8c8cccc(F)c8)nn67)n5)CC4)c3C2=O)C(=O)N1 (some centres undefined)
- Activity (KM12 [1]): 90%
- Activity (KM12 [2]): 23%
- Activity (KM12 [3]): 21%

SMILES: O=C1CCC(N2C(=O)c3cccc(NCCOCCOCCC(=O)N4CCN(c5cccc(-c6cnc7ccc(N8CCC[C@@H]8c8cccc(F)c8)nn67)n5)CC4)c3C2=O)C(=O)N1 (some centres undefined)
- Activity (KM12 [1]): 95%
- Activity (KM12 [2]): 56%
- Activity (KM12 [3]): 30%

SMILES: O=C1CCC(N2C(=O)c3cccc(NCCOCCC(=O)N4CCN(c5cccc(-c6cnc7ccc(N8CCC[C@@H]8c8cccc(F)c8)nn67)n5)CC4)c3C2=O)C(=O)N1 (some centres undefined)
- Kd [4]: 1 nM
- Activity (KM12 [1]): 96%
- Activity (KM12 [2]): 82%
- Activity (KM12 [3]): 46%
- Kd [5]: 28 nM
- Kd [6]: 4.2 nM
- DC50 [7]: 0.36 nM
- IC50 [8]: 30 nM
- inhibition (KM12 [9]): Dose-dependent effect
- Activity (KM12 [10]): Active
- Activity (KM12 [11]): inactive
- Activity (KM12 [12]): Active
- inhibition (KM12 [13]): Active
- Activity (KM12 [14]): Active
- inhibition (KM12 [15]): Active
- DC50 [16]: 2.23 nM
- Activity (KM12 [17]): Active
- Activity (KM12 [18]): Active
- Activity (KM12 [19]): inactive
- Activity (KM12 [20]): inactive
- Activity (KM12 [21]): inactive
- Activity (KM12 [22]): inactive
- IC50 (KM12 [23]): 52 nM
- Cmax [24]: 1.64 µM
- concentration at 8 h [25]: 0.0124 µM

SMILES: O=C1CCC(N2C(=O)c3cccc(NCCOCCOCCOCCC(=O)N4CCN(c5cccc(-c6cnc7ccc(N8CCC[C@@H]8c8cccc(F)c8)nn67)n5)CC4)c3C2=O)C(=O)N1 (some centres undefined)
- Activity (KM12 [1]): 86%
- Activity (KM12 [2]): 28%
- Activity (KM12 [3]): 22%

SMILES: CN1C(=O)CCC(N2C(=O)c3cccc(NCCOCCC(=O)N4CCN(c5cccc(-c6cnc7ccc(N8CCC[C@@H]8c8cccc(F)c8)nn67)n5)CC4)c3C2=O)C1=O (some centres undefined)
- Kd [4]: 0.88 nM
- Kd [5]: 59.8 nM
- Kd [6]: 4.8 nM
- Activity (KM12 [26]): inactive
- Activity [27]: inactive
- IC50 (KM12 [23]): 28 nM

SMILES: O=C1CCC(N2C(=O)c3cccc(NCCOCCOCCOCCOCCC(=O)N4CCN(c5cccc(-c6cnc7ccc(N8CCC[C@@H]8c8cccc(F)c8)nn67)n5)CC4)c3C2=O)C(=O)N1 (some centres undefined)
- Activity (KM12 [1]): 91%
- Activity (KM12 [2]): 40%
- Activity (KM12 [3]): 22%

SMILES: O=C1CCC(N2C(=O)c3cccc(NCCCC(=O)N4CCN(c5cccc(-c6cnc7ccc(N8CCC[C@@H]8c8cccc(F)c8)nn67)n5)CC4)c3C2=O)C(=O)N1 (some centres undefined)
- Activity (KM12 [1]): 94%
- Activity (KM12 [2]): 63%
- Activity (KM12 [3]): 12%

SMILES: OC1CCN(c2cc(-c3cccc(-c4cnc5ccc(N6CCC[C@@H]6c6cccc(F)c6)nn45)n3)ccn2)CC1
- Kd [4]: 0.81 nM
- Activity (KM12 [1]): 52%
- Activity (KM12 [2]): 16%
- Activity (KM12 [3]): 6%
- Kd [5]: 22.7 nM
- Kd [6]: 5.4 nM
- IC50 (KM12 [23]): 16 nM

SMILES: O=C1CCC(N2C(=O)c3cccc(NCC(=O)N4CCN(c5cccc(-c6cnc7ccc(N8CCC[C@@H]8c8cccc(F)c8)nn67)n5)CC4)c3C2=O)C(=O)N1 (some centres undefined)
- Activity (KM12 [1]): 93%
- Activity (KM12 [2]): 45%
- Activity (KM12 [3]): 15%

SMILES: O=C1CCC(N2C(=O)c3cccc(NCCCCC(=O)N4CCN(c5cccc(-c6cnc7ccc(N8CCC[C@@H]8c8cccc(F)c8)nn67)n5)CC4)c3C2=O)C(=O)N1 (some centres undefined)
- Activity (KM12 [1]): 93%
- Activity (KM12 [2]): 69%
- Activity (KM12 [3]): 20%

SMILES: O=C1CCC(N2C(=O)c3cccc(NCCCCCC(=O)N4CCN(c5cccc(-c6cnc7ccc(N8CCC[C@@H]8c8cccc(F)c8)nn67)n5)CC4)c3C2=O)C(=O)N1 (some centres undefined)
- Kd [4]: 2.1 nM
- Activity (KM12 [1]): 96%
- Activity (KM12 [2]): 65%
- Activity (KM12 [3]): 18%
- Kd [5]: 112 nM
- Kd [6]: 18 nM
- DC50 [7]: 0.48 nM
- IC50 [8]: 30 nM
- inhibition (KM12 [9]): Dose-dependent effect
- Activity (KM12 [10]): Active
- Activity (KM12 [11]): inactive
- Activity (KM12 [12]): Active
- inhibition (KM12 [13]): Active
- Activity (KM12 [14]): Active
- inhibition (KM12 [15]): Active
- DC50 [16]: 1.26 nM
- Activity (KM12 [17]): Active
- Activity (KM12 [18]): Active
- Activity (KM12 [19]): inactive
- Activity (KM12 [20]): inactive
- Activity (KM12 [21]): inactive
- Activity (KM12 [22]): inactive
- Activity [28]: inactive
- Activity [29]: inactive
- IC50 (KM12 [23]): 5.4 nM
- Cmax [24]: 2.05 µM
- concentration at 8 h [25]: 0.0148 µM
- half-life [30]: 54 min

SMILES: CN1C(=O)CCC(N2C(=O)c3cccc(NCCCCCC(=O)N4CCN(c5cccc(-c6cnc7ccc(N8CCC[C@@H]8c8cccc(F)c8)nn67)n5)CC4)c3C2=O)C1=O (some centres undefined)
- Kd [4]: 2.9 nM
- Kd [5]: 187 nM
- Kd [6]: 24.2 nM
- Activity (KM12 [26]): inactive
- Activity [27]: inactive
- IC50 (KM12 [23]): 2.9 nM
